# Test results from patent US5585382A, “Polycyclic and heterocyclic chromophores for bis-imide tumoricidals” (The DuPont Merck Pharmaceutical Company, priority 1995, dated 1996).
# Where two headings read alike, the source gives them in different places.
# Key:
# [1] = system: Clone A human colon cancer cells; test: In vitro growth inhibition of Clone A cells (MTT, 72 hr); assay type: cell-based; conditions: read-out: Clone A IC50
# Method: (§1) The reagents for tissue culture were purchased from GIBCO (Grand Island, N.Y.). 5-Dimethylthiazol-2-yl)-2,5-diphenyl tetrazolium bromide (MTT) was purchased from Sigma Chemical Company (St. Louis, Mo.). All agents were prepared as 2 mg/ml stock solutions in DMSO. MTT was prepared as a 1 mg/ml stock solution in Dulbecco's phosphate buffered saline (PBS). All stocks were stored frozen in the dark at -20° C.
# (§2) Clone A human colon cancer cells were isolated from the heterogeneous DLD-1 colon tumor line and maintained as previously described (Dexter, D. L.; Barbosa, J. A.; Calabresi, P. Cancer Research 1979, 39, 1020; Dexter, D. L.; Spremulli, E. M.; Fligiel, A.; Barbosa, J. A.; Vogel, R.; Van Vorhees, A.; Calabresi, P. Am. J. Med. 1981, 71, 949.). Murine leukemia L1210 cells were maintained in RPMI-L medium as described (Chen, S.-F.; Ruben, R. L.; Dexter, D. L. Cancer Research 1986, 46, 5014.). All cell lines were incubated at 37° C. in a humidified atmosphere of 5% CO2 -95% air.
# (§3) Exponentially growing L1210 cells (1×10^3), or Clone A cells (8×10^2) in 0.1 ml medium were seeded in a 96-well microtiter plate on day 0. On day one, 0.1 ml aliquots of medium containing graded concentrations of test compounds were added to the cell plates. After incubation at 37° C. in a humidified incubator for 72 hr, the plates containing L1210 cells were centrifuged briefly and 100 μl of the growth medium was removed. Cell cultures were incubated with 50 μl of MTT for 4 h at 37° C. (12). The resulting purple formazan precipitate was solubilized with 200 μl of 0.04 N HCl in isopropyl alcohol. Absorbance was read in a Titertek Multiskan MCC scanning well spectrophotometer (Flow Laboratories) at a test wavelength of 570 nm and a reference wavelength of 630 nm. The absorbances were stored on a floppy disk on an IBM-XT and uploaded onto a VAX computer. IC50 values were determined by a computer program that fit the data to the following equation:
# (§4) Y=((Am -Ao)/(1+(X/IC50)^n))+Ao
# (§5) where Am =absorbance of the control cells; Ao =absorbance of the cells in the presence of highest compound concentration; Y=observed absorbance; X=compound concentration; IC50 =dose of compound that inhibits the number of population doublings of cells to one half that of the number of population doublings of the control cells; and n equals the slope of the straight portion of the curve.
# (§6) The values reported in the table are from at least one experiment performed in eight replicates. If more than one experiment was performed, the number reported is the average of all the trials
# [2] = system: Murine leukemia L1210 cells; test: In vitro growth inhibition of L1210 cells (MTT, 72 hr); assay type: cell-based; conditions: Mus musculus, read-out: L1210 IC50
# Method: as §1, §2, §3, §4, §5, §6
SMILES,solubility (Solubility in water),IC50 ([1]; 72 h),"IC50 ([2]; L1210, 72 h)","IC50 ([1]; Clone A cells, 72 hr, MTT)","IC50 ([2]; L1210 cells, 72 hr, MTT)"
"CCc1ccc2cc3c4c(cccc4c2c1)C(=O)N(CCCCNCCCN1C(=O)c2cccc4c2c(cc2ccc(CC)cc24)C1=O)C3=O.CS(=O)(=O)O [Example 47, 4-[3-(6-Ethylphenanthrene-1, 10-dicarboximido)propylamino]-1-(6-ethylphenanthrene-1, 10-dicarboximido)butane Hydromethanesulfonate]",150 µg/mL,0.763 µg/mL,0.378 µg/mL,,
"CS(=O)(=O)O.O=C1c2cccc3c2c(cc2ccc(C(F)(F)F)cc23)C(=O)N1CCCCNCCCN1C(=O)c2cccc3c2c(cc2ccc(C(F)(F)F)cc23)C1=O [Example 44, 4-(3-[6-(Trifluoromethyl)phenanthrene-1,10-dicarboximido]propylamino)-1-[6-(trifluoromethyl)phenanthrene-1, 10dicarboximido]butane Hydromethanesulfonate]",270 µg/mL,1.01 µg/mL,0.888 µg/mL,,
"CS(=O)(=O)O.Cc1c2c3c(cccc3c3ccccc13)C(=O)N(CCCCNCCCN1C(=O)c3cccc4c3c(c(C)c3ccccc34)C1=O)C2=O [Example 43, 4-[3-(9-Methylphenanthrene-1,10-dicarboximido)propylamino]-1-(9-methylphenanthrene-1, 10-dicarboximido)butane Hydromethanesulfonate]",40 µg/mL,0.4 µg/mL,0.357 µg/mL,,
"CS(=O)(=O)O.Cc1cccc2c1cc1c3c(cccc32)C(=O)N(CCCCNCCCN2C(=O)c3cccc4c3c(cc3c(C)cccc34)C2=O)C1=O [Example 42, 4-[3-(8-Methylphenanthrene-1,10-dicarboximido)propylamino]-1-(8-methylphenanthrene-1, 10-dicarboximido)butane Hydromethanesulfonate]",60 µg/mL,0.271 µg/mL,0.137 µg/mL,,
"O=C1c2cccc3c2c(cc2cnccc23)C(=O)N1CCCCNCCCN1C(=O)c2cccc3c2c(cc2cnccc23)C1=O [Example 15, 4-[3-(7-Azaphenanthrene-1,10-dicarboximido)propylamino]-1-(7-azaphenanthrene-1,10dicarboximido) butane 2.5-Hydromethanesulfonate]",810 µg/mL,,,0.002 µg/mL,0.002 µg/mL
"CS(=O)(=O)O.Cc1cnc2c(c1)cc1c3c(cc([N+](=O)[O-])cc32)C(=O)N(CCCCNCCCN2C(=O)c3cc([N+](=O)[O-])cc4c3c(cc3cc(C)cnc34)C2=O)C1=O [Example 12, 4-[3-(3-Nitro-7-methyl-5-azaphenanthrene-1, 10-dicarboximido)propylamino]-1-(3-nitro-7-methyl-5-azaphenanthrene-1, 10-dicarboximido)butane Hydromethanesulfonate]",50 µg/mL,0.009 µg/mL,0.027 µg/mL,,
"CS(=O)(=O)O.CS(=O)(=O)O.CS(=O)(=O)O.Cc1nc2cc3c4c(cccc4c2[nH]1)C(=O)N(CCCCNCCCN1C(=O)c2cccc4c2c(cc2nc(C)[nH]c24)C1=O)C3=O [Example 81, 4-[3-(2-Methyl-1H-naphth[1,2-d]imidazole-5,6-dicarboximido)propylamino]-1-(2-methyl-1H-naphth[1,2-d]imidazole-5,6-dicarboximido)butane Trihydromethanesulfonate]",7600 µg/mL,,,22.2 µg/mL,0.201 µg/mL
"CS(=O)(=O)O.CS(=O)(=O)O.CS(=O)(=O)O.O=C1c2cccc3c2c(cc2ccncc23)C(=O)N1CCCCNCCCN1C(=O)c2cccc3c2c(cc2ccncc23)C1=O [Example 14, 4-[3-(6-Azaphenanthrene-1,10-dicarboximido)propylamino]-1-(6-azaphenanthrene-1,10-dicarboximido) butane Trihydromethanesulfonate]",900 µg/mL,,,0.003 µg/mL,0.008 µg/mL
"CS(=O)(=O)O.Cc1ccc2c(C)c3c4c(cccc4c2c1)C(=O)N(CCCCNCCCN1C(=O)c2cccc4c2c(c(C)c2ccc(C)cc24)C1=O)C3=O [Example 46, 4-[3-(6,9-Dimethylphenanthrene-1,10-dicarboximido)propylamino]-1-(6,9-dimethylphenanthrene-1, 10-dicarboximido)butane Hydromethanesulfonate]",40 µg/mL,0.958 µg/mL,0.414 µg/mL,,
"CS(=O)(=O)O.O=C1c2cccc3c2c(cc2ccoc23)C(=O)N1CCCCNCCCN1C(=O)c2cccc3c2c(cc2ccoc23)C1=O [Example 80, 4-[3-(Naphtho[1,2-b]furan-5,6-dicarboximido)propylamino]-1-(naphtho[1,2-b]furan-5,6-dicarboximido)butane Hydromethanesulfonate]",420 µg/mL,,,0.635 µg/mL,0.389 µg/mL
"CS(=O)(=O)O.O=C1c2cccc3c2c(cc2ccc(F)cc23)C(=O)N1CCCCNCCCN1C(=O)c2cccc3c2c(cc2ccc(F)cc23)C1=O [Example 56, 4-[3-(6-Fluorophenanthrene-1,10-dicarboximido)propylamino]-1-(6-fluorophenanthrene-1,10-dicarboximido)butane Hydromethanesulfonate]",40 µg/mL,0.222 µg/mL,0.365 µg/mL,,
C[C@H](CNC[C@@H](C)N1C(=O)c2cc([N+](=O)[O-])cc3c2c(cc2cccnc23)C1=O)NC[C@@H](C)N1C(=O)c2cc([N+](=O)[O-])cc3c2c(cc2cccnc23)C1=O [Example 21],7700 µg/mL,,,0.005 µg/mL,0.042 µg/mL
O=C1c2cccc3cc([N+](=O)[O-])cc(c23)C(=O)N1CCCCNCCCN1C(=O)c2cccc3c2c(cc2cccnc23)C1=O [Example 124],290 µg/mL,,,,0.011 µg/mL
"CS(=O)(=O)O.CS(=O)(=O)O.CS(=O)(=O)O.Nc1cc2c3c(cc4cccnc4c3c1)C(=O)N(CCCCNCCCN1C(=O)c3cc(N)cc4c3c(cc3cccnc34)C1=O)C2=O [Example 9, 4-[3-(3-Amino-5-azaphenanthrene-1,10-dicarboximido)propylamino]-1-(3-amino-5-azaphenanthrene-1, 10-dicarboximido)butane Trihydromethanesulfonate]",11000 µg/mL,,,0.166 µg/mL,0.182 µg/mL
"CS(=O)(=O)O.O=C1c2cccc3c2c(cc2ccccc23)C(=O)N1CCCCNCCCN1C(=O)c2cccc3c2c(cc2ccccc23)C1=O [Example 40, 4-[3-(Phenanthrene-1, 10-dicarboximido)propylamino]-1-(phenanthrene-1, 10-dicarboximido) butane Hydromethanesulfonate]",60 µg/mL,0.412 µg/mL,0.098 µg/mL,,
C[C@H](CNCCNC[C@@H](C)N1C(=O)c2cc([N+](=O)[O-])cc3c2c(cc2cccnc23)C1=O)N1C(=O)c2cccc3cc([N+](=O)[O-])cc(c23)C1=O [Example 123],5770 µg/mL,,,,0.013 µg/mL
"CS(=O)(=O)O.CS(=O)(=O)O.C[C@H](CNCCNC[C@@H](C)N1C(=O)c2cccc3c4c(cc(c23)C1=O)C(=O)c1ccccc1C4=O)N1C(=O)c2cccc3c4c(cc(c23)C1=O)C(=O)c1ccccc1C4=O [Example 101, (R,R)-1,2-bis-[2-(7,12-Dihydro-7,12-dioxobenz[a]anthracene-4,5-dicarboximido)propylamino]ethane Dihydromethanesulfonate]",,,,0.05 µg/mL,0.105 µg/mL
"C[C@H](CNCCNC[C@@H](C)N1C(=O)c2cc([N+](=O)[O-])cc3c2c(cc2ccncc23)C1=O)N1C(=O)c2cccc3cc([N+](=O)[O-])cc(c23)C1=O [Example 119, (R,R)-1-[3-Nitro-6-azaphenanthrene-1, 10-dicarboximido)propylamino]-2-[2-(3-nitronaphthalene-1,8-dicarboximido)propylamino]ethane Dihydromethanesulfonate]",,0.003 µg/mL,0.044 µg/mL,,
"CS(=O)(=O)O.O=C1c2cccc3c2c(cc2cc([N+](=O)[O-])cnc23)C(=O)N1CCCCNCCCN1C(=O)c2cccc3c2c(cc2cc([N+](=O)[O-])cnc23)C1=O [Example 11, 4-[3-(7-Nitro-5-azaphenanthrene-1,10dicarboximido)propylamino]-1-(7-nitro-5-azaphenanthrene-1, 10-dicarboximido)butane Hydromethanesulfonate]",,0.543 µg/mL,0.171 µg/mL,,
